The supplement of paper PMC10307832

compound: COC1=CC=C(C=C1)COC2=C(C=C(C=C2)CC3=CN=C(N=C3N)N)OC [GW-2580] + CCNC(=O)c1noc(-c2cc(C(C)C)c(O)cc2O)c1-c1ccc(CN2CCOCC2)cc1 [Luminespib] (partner 0.01 µM); experiment: relative viability (nuclei count vs DMSO), 5 days (fraction); higher = more cells survive; settings: first compound 0.08 µM
Summary of the method: (§1)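 Values are medians from duplicate plates. Each reflects relative viability, defined as the nuclei count of treated wells over that of vehicle wells. Lung cancer cell lines in 1536-well plates were pin-tool dosed one day after seeding with one drug alone or with a fixed anchor-drug dose plus five library-drug doses (not always all listed) in √10 steps, then fixed, stained and imaged at 4× after 5 days.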

Cell Line	relative viability
NCI-H2228	0.167
NCI-H1792	0.503
NCI-H2023	0.932
NCI-H1563	0.546

same assay, conditions: first compound 0.8 µM

Cell Line	relative viability
NCI-H2342	0.77
NCI-H1623	0.43
NCI-H727	0.539
NCI-H1650	0.195
NCI-H1993	0.907
SW 1573	0.213
NCI-H838	0.31
LCLC-103H	0.895
NCI-H520	0.202
NCI-H2126	1
EMC-BAC-2	1.3
NCI-H2085	0.364
NCI-H1666	1.09
NCI-H596	1.03
LK-2	0.173
NCI-H2087	0.179

Cell Line	relative viability
SK-MES-1	0.989
H3255	1.1
COR-L23	0.774
COR-L 105	0.588
LOU-NH91	0.34
ChaGo-K-1	0.677
HCC-44	0.945
NCI-H522	1.57
NCI-H2009	1.11
NCI-H661	0.996
SK-LU-1	0.183
NCI-H2228	0.185
NCI-H1792	0.444
NCI-H2023	1.07
NCI-H1563	0.522

same assay, conditions: first compound 2.53 µM

Cell Line	relative viability
NCI-H2342	0.859
NCI-H1623	0.482
NCI-H727	0.344
NCI-H1650	0.197
NCI-H1993	0.71
SW 1573	0.24
NCI-H838	0.376
LCLC-103H	0.844
NCI-H520	0.196
NCI-H2126	0.907
EMC-BAC-2	1.17
NCI-H2085	0.436
NCI-H1666	0.918
NCI-H596	0.998
LK-2	0.238
NCI-H2087	0.174

Cell Line	relative viability
SK-MES-1	0.701
H3255	0.84
COR-L23	0.828
COR-L 105	0.681
LOU-NH91	0.319
ChaGo-K-1	0.501
HCC-44	0.988
NCI-H522	1.14
NCI-H2009	0.999
NCI-H661	0.931
SK-LU-1	0.212
NCI-H2228	0.0943
NCI-H1792	0.567
NCI-H2023	1.26
NCI-H1563	0.484

same assay, conditions: first compound 8 µM

Cell Line	relative viability
NCI-H2342	0.714
NCI-H1623	0.471
NCI-H727	0.382
NCI-H1650	0.182
NCI-H1993	0.852
SW 1573	0.217
NCI-H838	0.338
LCLC-103H	0.839
NCI-H520	0.274
NCI-H2126	0.825
EMC-BAC-2	1.11
NCI-H2085	0.411
NCI-H1666	0.928
NCI-H596	0.913
LK-2	0.175
NCI-H2087	0.164

Cell Line	relative viability
SK-MES-1	0.83
H3255	0.67
COR-L23	0.808
COR-L 105	0.647
LOU-NH91	0.356
ChaGo-K-1	0.562
HCC-44	1.15
NCI-H522	1.24
NCI-H2009	0.876
NCI-H661	0.704
SK-LU-1	0.206
NCI-H2228	0.183
NCI-H1792	0.411
NCI-H2023	0.717
NCI-H1563	0.545

compound: COC1=CC=C(C=C1)COC2=C(C=C(C=C2)CC3=CN=C(N=C3N)N)OC [GW-2580] + NC(=O)Nc1cc(-c2cccc(F)c2)sc1C(=O)N[C@H]1CCCNC1 [AZD7762] (partner 0.2 µM); experiment: as above; settings: first compound 0.08 µM
Summary of the method: as §1

Cell Line	relative viability
NCI-H2342	0.585
NCI-H727	0.461
NCI-H1703	0.115
NCI-H1993	0.851
NCI-H838	0.976
LCLC-103H	0.884
NCI-H2126	1.06
EMC-BAC-2	1.15
NCI-H2085	1.14
HCC-366	0.359
NCI-H1666	0.824
NCI-H596	1.1
LK-2	0.44
NCI-H2087	1.33
NCI-H1648	0.713
H3255	0.876
LOU-NH91	0.862
ChaGo-K-1	0.933
HCC-44	0.994
NCI-H522	0.903
HCC-78	0.637
NCI-H1792	0.681

same assay, conditions: first compound 0.8 µM

Cell Line	relative viability
NCI-H2342	0.481
NCI-H727	0.732
NCI-H1703	0.128
NCI-H1993	0.772
NCI-H838	0.998
LCLC-103H	0.838
NCI-H2126	1.02
EMC-BAC-2	1.33
NCI-H2085	1.14
HCC-366	0.317
NCI-H1666	1.1
NCI-H596	1.18
LK-2	0.681
NCI-H2087	1.4
H3255	1.22
LOU-NH91	0.677
ChaGo-K-1	0.887
HCC-44	1
NCI-H522	0.806
HCC-78	0.663
NCI-H1792	0.712

same assay, conditions: first compound 2.53 µM

Cell Line	relative viability
NCI-H2342	0.497
NCI-H727	0.576
NCI-H1703	0.122
NCI-H1993	0.687
NCI-H838	0.92
LCLC-103H	0.648
NCI-H2126	0.942
NCI-H2085	0.989
HCC-366	0.27
NCI-H1666	0.852
NCI-H596	1.19
